From ChEMBL document CHEMBL1136832, “Synthesis of 7-chloro-2,3-dihydro-2-[1-(pyridinyl)alkyl]-pyridazino[4,5-b]quinoline-1,4,10(5H)-triones as NMDA glycine-site antagonists” (Bioorg Med Chem Lett, 2003)

Tests used:
Caco-2 = conditions: Homo sapiens
Description: Cellular permeability in Caco-2 cells.

[1] = Oral bioavailability in rat; conditions: in vivo
physchem = conditions: buffer, pH 7.4
Glutamate NMDA receptor = format: cell membranes, Membrane
Description: Affinity for glycine site of NMDA receptor on rat brain membranes by displacement of [3H]- MDL 105,519.

bioavailability [1] [%]	solubility (physchem) [µg/mL]	Ki (Glutamate NMDA receptor) [µM]	Structure (SMILES)	Permeability (Caco-2)
30			CC(c1ccncc1)n1[nH]c(=O)c2[nH]c3cc(Cl)ccc3c(=O)c2c1=O.CS(=O)(=O)O (stereo not drawn)	5.8e-06
17	> 200		CCC(c1ccncc1)n1[nH]c(=O)c2[nH]c3cc(Cl)ccc3c(=O)c2c1=O.CS(=O)(=O)O (stereo not drawn)	1.1e-05
	> 170	> 10	CS(=O)(=O)O.O=c1[nH]n(C(c2ccccn2)C2CCCC2)c(=O)c2c(O)c3ccc(Cl)cc3nc12 (stereo not drawn)	5.6e-06
	> 130	> 10	CC(C)CC(c1ccccn1)n1[nH]c(=O)c2nc3cc(Cl)ccc3c(O)c2c1=O.CS(=O)(=O)O (stereo not drawn)	9.1e-06
		2.36	CCC(c1ccccn1)n1[nH]c(=O)c2nc3cc(Cl)ccc3c(O)c2c1=O (stereo not drawn)	
	> 220	4.34	CCCC(c1ccncc1)n1[nH]c(=O)c2nc3cc(Cl)ccc3c(O)c2c1=O.CS(=O)(=O)O (stereo not drawn)	1.6e-05
	490	0.996	CS(=O)(=O)O.O=c1[nH]n(C(c2ccccn2)C2CC2)c(=O)c2c(O)c3ccc(Cl)cc3nc12 (stereo not drawn)	9.8e-06
	> 160	0.439	O=c1[nH]n(Cc2cc[n+]([O-])cc2)c(=O)c2c(O)c3ccc(Cl)cc3nc12	5e-07
	> 170	5.23	CC(C)CC(c1ccncc1)n1[nH]c(=O)c2nc3cc(Cl)ccc3c(O)c2c1=O.CS(=O)(=O)O (stereo not drawn)	1.1e-05
5			O=c1[nH]n(Cc2ccncc2)c(=O)c2c(=O)c3ccc(Cl)cc3[nH]c12	2e-07
	> 220	> 10	CCCCC(c1ccccn1)n1[nH]c(=O)c2nc3cc(Cl)ccc3c(O)c2c1=O.CS(=O)(=O)O (stereo not drawn)	1.6e-05
	130	> 10	CS(=O)(=O)O.O=c1[nH]n(C(c2ccccc2)c2ccncc2)c(=O)c2c(O)c3ccc(Cl)cc3nc12 (stereo not drawn)	4e-06
		2.42	CC(c1cc[n+]([O-])cc1)n1[nH]c(=O)c2nc3cc(Cl)ccc3c(O)c2c1=O (stereo not drawn)	
